This is an account of results in patent US10125118B2, “Heteroaryl compounds and their use as therapeutic drugs” (Dong-A Socio Holdings Co., Ltd., priority 2015, dated 2018).

Structures are written as SMILES. pIC50: −log10 of the molar value. Where only a bound is given, the exact number is not on record here.

This assay addresses human c-MER catalytic domain (Homo sapiens (Human), UniProt Q12866). The assay can be described thus: LanthaScreen TR-FRET kinase assay, c-MER. The settings on record: read-out: Mer TK inhibition (IC50); Biochemical IC50, TR-FRET, 10 uM ATP.

human c-MER catalytic domain, sequence (Q12866 587-858): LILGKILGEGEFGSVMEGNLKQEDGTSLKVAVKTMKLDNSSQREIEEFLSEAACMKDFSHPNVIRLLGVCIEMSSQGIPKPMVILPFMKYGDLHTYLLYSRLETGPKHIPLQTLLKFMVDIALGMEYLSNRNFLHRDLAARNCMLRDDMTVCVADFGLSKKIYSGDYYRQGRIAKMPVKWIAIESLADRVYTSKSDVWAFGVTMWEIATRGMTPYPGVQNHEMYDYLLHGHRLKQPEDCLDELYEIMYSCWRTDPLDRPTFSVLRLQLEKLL

The pIC50 is −log10 of the IC50, conventionally taken in molar units. Consider `Cn1cc(-c2cnc(N)c(C(=O)N[C@H]3CCC[C@@H]3O)c2)cn1` [Example 69, 2-amino-N-((1S,2S)-2-hydroxycyclopentyl)-5-(1-methyl-1H-pyrazol-4-yl)nicotinamide], for which the pIC50 was below 6.00. The value for `COC(=O)CNC(=O)c1cccc(CO[C@H]2CCC[C@@H]2NC(=O)c2cc(-c3cnn(C)c3)cnc2N)c1` [Example 55, methyl (3-((((1S,2S)-2-(2-amino-5-(1-methyl-1H-pyrazol-4-yl)nicotinamido)cyclopentyl)oxy)methyl)benzoyl)glycinate] was below 6.00; that for `Cn1cc(-c2cnc(N)c(C(=O)N[C@H]3COC[C@H]3O)c2)cn1` (relative stereo) [Example 92, 2-amino-N-(cis-4-hydroxytetrahydrofuran-3-yl)-5-(1-methyl-1H-pyrazol-4-yl)nicotinamide] was below 6.00.

Consider `Cn1cc(-c2cnc(N)c(C(=O)N[C@H]3CCC[C@@H]3OCc3ccccc3)c2)c(CNCCO)n1` [Example 262, 2-amino-N-((1S,2S)-2-(benzyloxy)cyclopentyl)-5-(3-(((2-hydroxyethyl)amino)methyl)-1-methyl-1H-pyrazol-4-yl)nicotinamide], for which the pIC50 is below 6.00. In the case of `C[C@H](NC(=O)c1cc(-c2cnn(C)c2)cnc1N)C(=O)OCc1ccccc1` [Example 126, benzyl (2-amino-5-(1-methyl-1H-pyrazol-4-yl)nicotinoyl)-L-alaninate] it was below 6.00; in that of `COC(=O)c1cccc(CO[C@H]2CCC[C@@H]2NC(=O)c2cc(-c3cnn(C)c3)cnc2N)c1` [Example 42, methyl 3-((((1S,2S)-2-(2-amino-5-(1-methyl-1H-pyrazol-4-yl)nicotinamido)cyclopentyl)oxy)methyl)benzoate], below 6.00. Consider `Cn1cc(-c2cnc(N)c(C(=O)N[C@@H](COCc3ccccc3)c3ccccc3)c2)cn1` [Example 116, (R)-2-amino-N-(2-(benzyloxy)-1-phenylethyl)-5-(1-methyl-1H-pyrazol-4-yl)nicotinamide], for which the pIC50 was below 6.00. In the case of `CN1CCN(c2ccc(Nc3ccc(C(=O)N[C@H]4CCC[C@@H]4OCc4ccccc4)c(N)n3)cc2)CC1` [Example 458, 2-amino-N-((1S,2S)-2-(benzyloxy)cyclopentyl)-6-((4-(4-methylpiperazin-1-yl)phenyl)amino)nicotinamide] it was below 6.00.

Take `Cn1cc(-c2cnc(N)c(C(=O)N[C@H]3CCC[C@@H]3OCc3cccc(-c4cccc(CO)c4)c3)c2)cn1` [Example 171, 2-amino-N-((1S,2S)-2-((3′-(hydroxymethyl)-[1,1′-biphenyl]-3-yl)-methoxy)cyclopentyl)-5-(1-methyl-1H-pyrazol-4-yl)nicotinamide]: the pIC50 was below 6.00. The value for `COc1ccc(CO[C@H]2CCC[C@@H]2NC(=O)c2cc(-c3cnn(C)c3)cnc2N)cc1` [Example 35, 2-amino-N-((1S,2S)-2-((4-methoxybenzyl)oxy)cyclopentyl)-5-(1-methyl-1H-pyrazol-4-yl)nicotinamide] was below 6.00; that for `Cn1cc(-c2cnc(N)c(C(=O)N[C@H]3CCC[C@@H]3OCc3cccc([N+](=O)[O-])c3)c2)cn1` [Example 30, 2-amino-5-(1-methyl-1H-pyrazol-4-yl)-N-((1S,2S)-2-((3-nitrobenzyl)oxy)cyclopentyl)nicotinamide] was below 6.00; that for `CN1CCN(Cc2ccc(-c3ccc(CO[C@H]4CCC[C@@H]4NC(=O)c4cc(C5=CCCCC5)cnc4N)cc3)cc2)CC1` [Example 382, 2-amino-5-(cyclohex-1-en-1-yl)-N-((1S,2S)-2-((4′-((4-methylpiperazin-1-yl)methyl)-[1,1′-biphenyl]-4-yl)methoxy)cyclopentyl)nicotinamide] was above 8.00. In the case of `Cn1cc(-c2cnc(N)c(C(=O)NC(C)(C)COCc3ccccc3)c2)cn1` [Example 99, 2-amino-N-(1-(benzyloxy)-2-methylpropan-2-yl)-5-(1-methyl-1H-pyrazol-4-yl)nicotinamide], the pIC50 is below 6.00. Turning to `COc1ccc(CO[C@@H]2CCC[C@H]2NC(=O)c2cc(-c3cnn(C)c3)cnc2N)cc1` [Example 36, 2-amino-N-((1R,2R)-2-((4-methoxybenzyl)oxy)cyclopentyl)-5-(1-methyl-1H-pyrazol-4-yl)nicotinamide], the pIC50 is below 6.00. In the case of `Cn1cc(-c2cnc(N)c(C(=O)N[C@H](COCc3ccccc3)Cc3ccccc3)c2)cn1` [Example 117, (S)-2-amino-N-(1-(benzyloxy)-3-phenylpropan-2-yl)-5-(1-methyl-1H-pyrazol-4-yl)nicotinamide] it was below 6.00; in that of `CC(C)C[C@H](COCc1ccccc1)NC(=O)c1cc(-c2cnn(C)c2)cnc1N` [Example 112, (R)-2-amino-N-(1-(benzyloxy)-4-methylpentan-2-yl)-5-(1-methyl-1H-pyrazol-4-yl)nicotinamide], below 6.00.

`C[C@H](COCc1ccccc1)NC(=O)c1cc(-c2cnn(C)c2)cnc1N` [Example 98, (R)-2-amino-N-(1-(benzyloxy)propan-2-yl)-5-(1-methyl-1H-pyrazol-4-yl)nicotinamide]: the negative logarithm of the IC50 (pIC50) is below 6.00. The value for `C[C@@H](CNC(=O)c1cc(-c2cnn(C)c2)cnc1N)OCc1ccccc1` [Example 96, (S)-2-amino-N-(2-(benzyloxy)propyl)-5-(1-methyl-1H-pyrazol-4-yl)nicotinamide] was below 6.00; that for `Cn1cc(-c2cnc(N)c(C(=O)N[C@@H](CO)C3CCCCC3)c2)cn1` [Example 114, (R)-2-amino-N-(1-cyclohexyl-2-hydroxyethyl)-5-(1-methyl-1H-pyrazol-4-yl)nicotinamide] was below 6.00; that for `C[C@H](N)C(=O)Nc1cccc(CO[C@H]2CCC[C@@H]2NC(=O)c2cc(-c3cnn(C)c3)cnc2N)c1` [Example 58, 2-amino-N-((1S,2S)-2-((3-((S)-2-aminopropanamido)benzyl)oxy)-cyclopentyl)-5-(1-methyl-1H-pyrazol-4-yl)nicotinamide] was below 6.00.

Consider `Cn1cc(-c2cnc(N)c(C(=O)N[C@H]3CCC[C@@H]3OCc3ccc(-c4cccc(CN)c4)cc3)c2)cn1` [Example 143], for which the pIC50 was below 6.00. On to `Cn1cc(-c2cnc(N)c(C(=O)N[C@H]3CCC[C@@H]3OCc3cccc(Br)c3)c2)cn1` [Example 51, 2-amino-N-((1S,2S)-2-((3-bromobenzyl)oxy)cyclopentyl)-5-(1-methyl-1H-pyrazol-4-yl)nicotinamide], for which the pIC50 was below 6.00. In the case of `C[C@@H](COCc1ccccc1)NC(=O)c1cc(-c2cnn(C)c2)cnc1N` [Example 97, (S)-2-amino-N-(1-(benzyloxy)propan-2-yl)-5-(1-methyl-1H-pyrazol-4-yl)nicotinamide] it was below 6.00. The value for `C[C@H](COCc1ccc(Cl)c(Cl)c1)NC(=O)c1cc(-c2cnn(C)c2)cnc1N` [Example 104, (R)-2-amino-N-(1-((3,4-dichlorobenzyl)oxy)propan-2-yl)-5-(1-methyl-1H-pyrazol-4-yl)nicotinamide] was below 6.00. The value for `CN1CCN(Cc2ccc(-c3ccc(CO[C@H]4CCC[C@@H]4NC(=O)c4cc(-c5cnn(C)c5)cnc4N)cc3)nc2)CC1` [Example 204, 2-amino-5-(1-methyl-1H-pyrazol-4-yl)-N-((1S,2S)-2-((4-(5-((4-methylpiperazin-1-yl)methyl)pyridin-2-yl)benzyl)oxy)cyclopentyl)nicotinamide] was above 8.00; that for `C[C@@H](OCc1ccccc1)[C@H](NC(=O)c1cc(-c2cnn(C)c2)cnc1N)C(=O)N1CCCC1` [Example 125, 2-amino-N-((2S,3R)-3-(benzyloxy)-1-oxo-1-(pyrrolidin-1-yl)butan-2-yl)-5-(1-methyl-1H-pyrazol-4-yl)nicotinamide] was below 6.00. `CN1CCN(C(C)(C)c2ccc(-c3ccc(CO[C@H]4CCC[C@@H]4NC(=O)c4cccnc4N)cc3)cc2)CC1` [Example 167, 2-amino-N-((1S,2S)-2-((4′-(2-(4-methylpiperazin-1-yl)propan-2-yl)-[1,1′-biphenyl]-4-yl)methoxy)cyclopentyl)nicotinamide]: the pIC50 is above 8.00. In the case of `Cn1cc(-c2cnc(N)c(C(=O)N[C@H]3CCC[C@@H]3COc3cccc(C(=O)N4CCCCC4)c3)c2)cn1` [Example 83, 2-amino-5-(1-methyl-1H-pyrazol-4-yl)-N-((1S,2S)-2-((3-(piperidine-1-carbonyl)phenoxy)methyl)cyclopentyl)nicotinamide] it was below 6.00; in that of `COc1cccc(COC[C@@H](C)NC(=O)c2cc(-c3cnn(C)c3)cnc2N)c1` [Example 106, (R)-2-amino-N-(1-((3-methoxybenzyl)oxy)propan-2-yl)-5-(1-methyl-1H-pyrazol-4-yl)nicotinamide], below 6.00. Take `Cn1cc(-c2cnc(N)c(C(=O)N[C@@H](COCc3ccccc3)C3CCCCC3)c2)cn1` [Example 113, (R)-2-amino-N-(2-(benzyloxy)-1-cyclohexylethyl)-5-(1-methyl-1H-pyrazol-4-yl)nicotinamide]: the pIC50 was below 6.00. For the compound `Cn1cc(-c2cnc(N)c(C(=O)N[C@H]3CCC[C@@H]3OCc3cccc(-c4cccc(O)c4)c3)c2)cn1` [Example 169, 2-amino-N-((1S,2S)-2-((3′-hydroxy-[1,1′-biphenyl]-3-yl)-methoxy)cyclopentyl)-5-(1-methyl-1H-pyrazol-4-yl)nicotinamide], the pIC50 is below 6.00. The value for `Cn1cc(-c2cnc(N)c(C(=O)N[C@H]3CCC[C@@H]3OCc3cccc(NC(=O)C4CCNCC4)c3)c2)cn1` [Example 57, 2-amino-5-(1-methyl-1H-pyrazol-4-yl)-N-((1S,2S)-2-((3-(piperidine-4-carboxamido)benzyl)oxy)cyclopentyl)nicotinamide] was below 6.00; that for `CN(Cc1ccccc1)[C@H]1CCC[C@@H]1NC(=O)c1cc(-c2cnn(C)c2)cnc1N` (relative stereo) [Example 76, 2-amino-N-(trans-2-(benzyl(methyl)amino)cyclopentyl)-5-(1-methyl-1H-pyrazol-4-yl)nicotinamide] was below 6.00. In the case of `Cn1cc(-c2cnc(N)c(C(=O)N[C@H]3CCC[C@@H]3OCc3cc(F)c(F)cc3F)c2)cn1` (relative stereo) [Example 50, 2-amino-5-(1-methyl-1H-pyrazol-4-yl)-N-(trans-2-((2,4,5-trifluorobenzyl)oxy)cyclopentyl)nicotinamide] it was below 6.00.
